Source: ChEMBL document CHEMBL1782045, “Discovery, synthesis, and investigation of the antitumor activity of novel piperazinylpyrimidine derivatives” (Eur J Med Chem, 2011)

Assays:
[1] = target: T1, Receptor-type tyrosine-protein kinase FLT3 (Homo sapiens, UniProt P36888); experiment: Binding affinity to human FLT3 incubated for 1 hr by kinase binding assay
[2] = tested on: MOLT-4; experiment: Growth inhibition of human MOLT4 cells after 48 hrs by sulforhodamine B assay; type: functional; conditions: MOLT-4, 48 h
[3] = tested on: MCF7; experiment: Growth inhibition of human MCF7 cells after 48 hrs by sulforhodamine B assay; type: functional; conditions: MCF7, 48 h
[4] = tested on: PC-3; experiment: Growth inhibition of human PC3 cells after 48 hrs by sulforhodamine B assay; type: functional; conditions: PC-3, 48 h
[5] = tested on: SK-MEL-28; experiment: Growth inhibition of human SK-MEL-28 cells after 48 hrs by sulforhodamine B assay; type: functional; conditions: SK-MEL-28, 48 h
[6] = tested on: IGROV-1; experiment: Growth inhibition of human IGROV1 cells after 48 hrs by sulforhodamine B assay; type: functional; conditions: IGROV-1, 48 h
[7] = tested on: CCRF-CEM; experiment: Growth inhibition of human CCRF-CEM cells after 48 hrs by sulforhodamine B assay; type: functional
[8] = tested on: UO-31; experiment: Growth inhibition of human UO31 cells after 48 hrs by sulforhodamine B assay; type: functional; conditions: UO-31, 48 h
[9] = tested on: OVCAR-8; experiment: Growth inhibition of human OVCAR8 cells after 48 hrs by sulforhodamine B assay; type: functional; conditions: OVCAR-8, 48 h
[10] = tested on: HL-60(TB); experiment: Growth inhibition of human HL-60(TB) cells after 48 hrs by sulforhodamine B assay; type: functional; conditions: HL-60, 48 h
[11] = target: T1, Receptor-type tyrosine-protein kinase FLT3; experiment: Inhibition of human FLT3 using gamma-33P-ATP as substrate by scintillation counting
[12] = tested on: OVCAR-4; experiment: Growth inhibition of human OVCAR4 cells after 48 hrs by sulforhodamine B assay; type: functional; conditions: OVCAR-4, 48 h
[13] = target: Mast/stem cell growth factor receptor Kit (Homo sapiens) (UniProt P10721); experiment: Inhibition of human KIT using gamma-33P-ATP as substrate assessed as enzyme functional activity at 1 uM by scintillation counting relative to untreated control; parameters: scale not given: the % may be the effect or the level left
[14] = tested on: SF-295; experiment: Growth inhibition of human SF295 cells after 48 hrs by sulforhodamine B assay; type: functional; conditions: SF-295, 48 h
[15] = tested on: Mast/stem cell growth factor receptor Kit (Homo sapiens), P10721 [L576P]; experiment: Binding affinity to human KIT L576P mutant at 10 uM incubated for 1 hr by kinase binding assay relative to untreated control
[16] = tested on: Mast/stem cell growth factor receptor Kit (Homo sapiens), P10721 [V560G]; experiment: Inhibition of human KIT V560G using gamma-33P-ATP as substrate assessed as enzyme functional activity at 1 uM by scintillation counting relative to untreated control; parameters: scale not given: the % may be the effect or the level left
[17] = tested on: MDA-MB-468; experiment: Growth inhibition of human MDA-MB-468 cells after 48 hrs by sulforhodamine B assay; type: functional; conditions: MDA-MB-468, 48 h

Sequence of Mast/stem cell growth factor receptor Kit (Homo sapiens), P10721 [L576P] (P10721 whole entry L576P): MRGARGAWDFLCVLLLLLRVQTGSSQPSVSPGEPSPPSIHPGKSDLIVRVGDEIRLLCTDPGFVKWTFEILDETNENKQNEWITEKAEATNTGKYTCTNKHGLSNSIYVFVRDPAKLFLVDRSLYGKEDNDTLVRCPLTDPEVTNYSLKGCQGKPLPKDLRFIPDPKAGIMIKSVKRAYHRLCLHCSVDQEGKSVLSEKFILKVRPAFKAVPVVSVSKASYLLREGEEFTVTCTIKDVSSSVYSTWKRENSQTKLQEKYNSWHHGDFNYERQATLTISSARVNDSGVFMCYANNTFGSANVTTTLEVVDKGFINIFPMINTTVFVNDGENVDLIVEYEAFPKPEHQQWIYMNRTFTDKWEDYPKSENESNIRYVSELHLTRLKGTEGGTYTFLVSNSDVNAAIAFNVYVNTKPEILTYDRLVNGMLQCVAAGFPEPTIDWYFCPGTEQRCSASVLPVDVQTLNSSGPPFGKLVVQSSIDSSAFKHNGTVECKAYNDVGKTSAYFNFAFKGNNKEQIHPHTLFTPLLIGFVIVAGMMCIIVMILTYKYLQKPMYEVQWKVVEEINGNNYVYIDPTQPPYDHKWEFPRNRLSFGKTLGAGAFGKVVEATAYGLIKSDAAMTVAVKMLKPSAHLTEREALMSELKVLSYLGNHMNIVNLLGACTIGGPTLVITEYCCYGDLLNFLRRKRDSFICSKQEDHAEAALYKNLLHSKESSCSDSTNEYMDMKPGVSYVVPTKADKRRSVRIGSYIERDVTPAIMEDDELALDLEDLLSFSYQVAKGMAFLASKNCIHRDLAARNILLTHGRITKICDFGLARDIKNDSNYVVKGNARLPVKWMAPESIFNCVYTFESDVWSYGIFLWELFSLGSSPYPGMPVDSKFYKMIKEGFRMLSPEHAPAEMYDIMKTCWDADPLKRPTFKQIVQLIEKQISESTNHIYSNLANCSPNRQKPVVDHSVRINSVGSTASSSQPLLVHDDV
Sequence of Mast/stem cell growth factor receptor Kit (Homo sapiens), P10721 [V560G] (P10721 whole entry V560G): as the sequence (P10721 whole entry L576P) above, with V560G, P576L counted along it
T1 sequence (P36888 whole entry): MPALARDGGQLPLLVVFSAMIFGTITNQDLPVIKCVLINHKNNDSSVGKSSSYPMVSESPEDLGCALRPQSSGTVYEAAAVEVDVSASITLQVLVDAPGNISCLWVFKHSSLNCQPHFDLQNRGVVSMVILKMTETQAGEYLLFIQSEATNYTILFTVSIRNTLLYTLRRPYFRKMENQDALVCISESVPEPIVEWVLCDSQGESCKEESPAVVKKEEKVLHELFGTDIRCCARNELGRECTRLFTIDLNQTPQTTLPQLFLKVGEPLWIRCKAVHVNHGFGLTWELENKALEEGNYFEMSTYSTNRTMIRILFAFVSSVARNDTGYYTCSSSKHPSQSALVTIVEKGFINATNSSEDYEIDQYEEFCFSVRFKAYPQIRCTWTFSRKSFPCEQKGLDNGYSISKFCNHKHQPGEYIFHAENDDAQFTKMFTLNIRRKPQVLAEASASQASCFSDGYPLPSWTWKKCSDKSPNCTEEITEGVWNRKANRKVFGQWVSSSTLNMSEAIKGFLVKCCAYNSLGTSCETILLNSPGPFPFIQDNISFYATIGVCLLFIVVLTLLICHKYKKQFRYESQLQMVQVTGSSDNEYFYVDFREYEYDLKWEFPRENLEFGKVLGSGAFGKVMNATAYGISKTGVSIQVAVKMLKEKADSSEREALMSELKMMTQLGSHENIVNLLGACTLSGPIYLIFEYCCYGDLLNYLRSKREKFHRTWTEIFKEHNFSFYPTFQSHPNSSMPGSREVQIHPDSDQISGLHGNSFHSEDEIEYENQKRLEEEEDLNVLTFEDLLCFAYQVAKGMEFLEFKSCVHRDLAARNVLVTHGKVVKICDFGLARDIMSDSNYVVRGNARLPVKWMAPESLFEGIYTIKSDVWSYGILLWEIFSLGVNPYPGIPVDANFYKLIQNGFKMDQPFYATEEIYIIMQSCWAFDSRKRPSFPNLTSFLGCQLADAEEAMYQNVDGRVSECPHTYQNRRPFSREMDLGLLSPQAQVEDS
Sequence of Mast/stem cell growth factor receptor Kit (Homo sapiens) (P10721 whole entry): as the sequence (P10721 whole entry L576P) above, with P576L counted along it

Row | SMILES | Kd [1] [µM] | TGI [2] [µM] | TGI [3] [µM] | TGI [4] [µM] | TGI [5] [µM] | TGI [6] [µM] | TGI [7] [µM] | TGI [8] [µM] | TGI [9] [µM] | TGI [10] [µM] | IC50 [11] [µM] | TGI [12] [µM] | GI50 [7] [µM] | Activity [13] [%] | TGI [14] [µM] | Activity [15] [%] | Activity [16] [%] | TGI [17] [µM]
1 | c1ccc(Cc2cnc(N3CCN(c4ncnc5ccccc45)CC3)nc2)cc1 | 0.46 | 40.6 | 58.2 | > 100 | 99.3 | 63.3 | 64.4 | 38.4 | 25.6 | 41.8 | 6.69 | – | – | – | – | – | – | –
2 | CCc1cnc(N2CCN(C(=O)c3ccc(CNc4ncnc5ccccc45)cc3)CC2)nc1 | – | – | 72.8 | > 100 | > 100 | 49.8 | 60.9 | 60.5 | > 100 | 38.6 | – | 58.8 | 10 | 100 | 23.1 | > 50 | 99 | –
3 | O=C(c1cccc(Nc2ncnc3ccccc23)c1)N1CCN(c2ncc(Cc3ccccc3)cn2)CC1 | – | – | – | – | – | – | – | – | – | – | – | – | – | 100 | – | > 50 | 86 | 3.47
